From PubChem BioAssay (NCI)
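Five compound concentrations were applied to cells in 96-well plates for 48 hours; endpoints were derived by simple linear interpolation of the resulting dose-response curve. The concentration for 50% growth inhibition is given as GI50. The concentration for full growth arrest is given as TGI.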

Key:
Assay in all cases: NCI tumour cell line growth inhibition, 48 h
UO-31 renal = test system: UO-31 renal
SR leukemia = test system: SR leukemia
OVCAR-5 ovarian = test system: OVCAR-5 ovarian
COLO 205 colon = test system: COLO 205 colon
LOX IMVI melanoma = test system: LOX IMVI melanoma
DU-145 prostate = test system: DU-145 prostate
HOP-92 NSCLC = test system: HOP-92 NSCLC
MCF7 breast = test system: MCF7 breast
HCT-116 colon = test system: HCT-116 colon
A498 renal = test system: A498 renal

O=C(Cc1ccc(F)c(F)c1)Nc1cc(C2(C(F)(F)F)CC2)nn1Cc1ccccc1
GI50 (UO-31 renal): 2.99 µM
TGI (UO-31 renal): 10.5 µM
GI50 (SR leukemia): 3.89 µM
TGI (SR leukemia): > 15 µM
GI50 (OVCAR-5 ovarian): 4 µM
TGI (OVCAR-5 ovarian): > 15 µM
GI50 (COLO 205 colon): 2.7 µM
TGI (COLO 205 colon): 6.34 µM
GI50 (LOX IMVI melanoma): 4.9 µM
TGI (LOX IMVI melanoma): > 15 µM
GI50 (DU-145 prostate): 5.34 µM
TGI (DU-145 prostate): > 15 µM
GI50 (HOP-92 NSCLC): 2.32 µM
TGI (HOP-92 NSCLC): 8.75 µM
GI50 (MCF7 breast): 3.9 µM
TGI (MCF7 breast): > 15 µM
GI50 (HCT-116 colon): 4.28 µM
TGI (HCT-116 colon): > 15 µM
GI50 (A498 renal): 0.548 µM
TGI (A498 renal): 4.35 µM

COCc1cc(C(=O)Nc2cc([C@H]3CC[C@@H](OC(=O)NC(C)C)C3)[nH]n2)n(C)n1
GI50 (UO-31 renal): 16 µM
TGI (UO-31 renal): 58.6 µM
GI50 (SR leukemia): 1.32 µM
TGI (SR leukemia): 9.9 µM
GI50 (OVCAR-5 ovarian): 7.99 µM
TGI (OVCAR-5 ovarian): > 100 µM
GI50 (COLO 205 colon): 3.15 µM
TGI (COLO 205 colon): 16.3 µM
GI50 (LOX IMVI melanoma): 4.15 µM
TGI (LOX IMVI melanoma): 75.5 µM
GI50 (DU-145 prostate): 5.13 µM
TGI (DU-145 prostate): > 100 µM
GI50 (HOP-92 NSCLC): 8.03 µM
TGI (HOP-92 NSCLC): 36.6 µM
GI50 (MCF7 breast): 2.53 µM
TGI (MCF7 breast): > 100 µM
GI50 (HCT-116 colon): 2.61 µM
TGI (HCT-116 colon): 43 µM
GI50 (A498 renal): 11.4 µM
TGI (A498 renal): 34.5 µM

Cc1nc2ccccc2c(/C=C/c2ccc(Cl)cc2)c1C(=O)/C=C/c1ccc(C(F)(F)F)cc1
GI50 (UO-31 renal): 0.238 µM
TGI (UO-31 renal): 0.807 µM
GI50 (SR leukemia): 0.25 µM
TGI (SR leukemia): 2.26 µM
GI50 (OVCAR-5 ovarian): 0.821 µM
TGI (OVCAR-5 ovarian): 2.84 µM
GI50 (COLO 205 colon): 1.32 µM
TGI (COLO 205 colon): 3.25 µM
GI50 (LOX IMVI melanoma): 0.181 µM
TGI (LOX IMVI melanoma): 0.361 µM
GI50 (DU-145 prostate): 1.03 µM
TGI (DU-145 prostate): 2.53 µM
GI50 (HOP-92 NSCLC): 1.07 µM
TGI (HOP-92 NSCLC): 2.47 µM
GI50 (MCF7 breast): 0.303 µM
TGI (MCF7 breast): 1.55 µM
GI50 (HCT-116 colon): 0.192 µM
TGI (HCT-116 colon): 0.652 µM
GI50 (A498 renal): 1.32 µM
TGI (A498 renal): 2.62 µM

CC(C)O/N=C/c1cc(NC(=S)OC(C)C)ccc1Cl
TGI (UO-31 renal): > 61.2 µM
TGI (SR leukemia): 45 µM
TGI (OVCAR-5 ovarian): > 86.1 µM
TGI (COLO 205 colon): > 81.3 µM
TGI (LOX IMVI melanoma): > 52.5 µM
TGI (DU-145 prostate): > 100 µM
TGI (HOP-92 NSCLC): 99.8 µM
TGI (MCF7 breast): > 68.8 µM
TGI (HCT-116 colon): > 74.3 µM
TGI (A498 renal): > 76.5 µM

COc1cccc(NC(=O)c2sc3nc(C)c(C(O)c4ccccc4)cc3c2N)c1 (centres undefined)
GI50 (UO-31 renal): 0.85 µM
TGI (UO-31 renal): 18.9 µM
GI50 (SR leukemia): 0.0503 µM
TGI (SR leukemia): 22.1 µM
GI50 (OVCAR-5 ovarian): 0.611 µM
TGI (OVCAR-5 ovarian): 19.2 µM
GI50 (COLO 205 colon): 2.42 µM
TGI (COLO 205 colon): 13.6 µM
GI50 (LOX IMVI melanoma): 0.264 µM
TGI (LOX IMVI melanoma): 18.6 µM
GI50 (DU-145 prostate): 0.382 µM
TGI (DU-145 prostate): 19.6 µM
GI50 (HOP-92 NSCLC): 4.21 µM
TGI (HOP-92 NSCLC): 26.9 µM
GI50 (MCF7 breast): 0.0698 µM
TGI (MCF7 breast): 13.9 µM
GI50 (HCT-116 colon): 0.241 µM
TGI (HCT-116 colon): 12 µM
GI50 (A498 renal): 0.0971 µM
TGI (A498 renal): 0.615 µM

NCC1OC(n2cnc3c(N)ncnc32)CC1O (centres undefined)
TGI (UO-31 renal): > 100 µM
TGI (SR leukemia): > 100 µM
TGI (OVCAR-5 ovarian): > 100 µM
TGI (COLO 205 colon): > 100 µM
TGI (LOX IMVI melanoma): > 100 µM
TGI (DU-145 prostate): > 100 µM
TGI (HOP-92 NSCLC): > 100 µM
TGI (MCF7 breast): > 100 µM
TGI (HCT-116 colon): > 100 µM
TGI (A498 renal): > 100 µM

C#CCSc1cc(Cl)c(C)cc1S(=O)(=O)Nc1nc2ccccc2o1
GI50 (UO-31 renal): 23.8 µM
TGI (UO-31 renal): 52.8 µM
GI50 (SR leukemia): 35.6 µM
TGI (SR leukemia): > 100 µM
GI50 (OVCAR-5 ovarian): 51.6 µM
TGI (OVCAR-5 ovarian): > 100 µM
GI50 (COLO 205 colon): 26 µM
TGI (COLO 205 colon): 71.7 µM
GI50 (LOX IMVI melanoma): 36 µM
TGI (LOX IMVI melanoma): > 100 µM
GI50 (DU-145 prostate): 37.9 µM
TGI (DU-145 prostate): > 100 µM
GI50 (HOP-92 NSCLC): 17.9 µM
TGI (HOP-92 NSCLC): 51.3 µM
GI50 (MCF7 breast): 49.7 µM
TGI (MCF7 breast): > 100 µM
GI50 (HCT-116 colon): 24.5 µM
TGI (HCT-116 colon): 55.1 µM
GI50 (A498 renal): 33.4 µM
TGI (A498 renal): 87.1 µM

Cn1cnc([N+](=O)[O-])c1Sc1nc(N)nc2c1ncn2C1CC(O)C(CO)O1 (centres undefined)
TGI (UO-31 renal): 44.9 µM
TGI (SR leukemia): 18.7 µM
TGI (OVCAR-5 ovarian): > 100 µM
TGI (COLO 205 colon): > 34.3 µM
TGI (LOX IMVI melanoma): > 100 µM
TGI (DU-145 prostate): > 50.8 µM
TGI (HOP-92 NSCLC): > 100 µM
TGI (MCF7 breast): > 54.2 µM
TGI (HCT-116 colon): > 100 µM
TGI (A498 renal): 71.2 µM

CC(=O)OC(C)(C)/C(C)=C/C(=O)O[C@H]1C(=O)O[C@@H]2C[C@H]3[C@H](C)C(=O)C(O[C@@H]4O[C@H](CO)[C@@H](O)[C@H](O)[C@H]4O)=C[C@]3(C)[C@H]3[C@@H](O)[C@H](O)[C@@]4(C(=O)O)OC[C@]32[C@@H]14
GI50 (UO-31 renal): > 100 µM
TGI (UO-31 renal): > 100 µM
GI50 (SR leukemia): 48.5 µM
TGI (SR leukemia): > 100 µM
GI50 (OVCAR-5 ovarian): > 100 µM
TGI (OVCAR-5 ovarian): > 100 µM
GI50 (COLO 205 colon): > 100 µM
TGI (COLO 205 colon): > 100 µM
TGI (LOX IMVI melanoma): > 100 µM
GI50 (DU-145 prostate): > 100 µM
TGI (DU-145 prostate): > 100 µM
GI50 (HOP-92 NSCLC): 65.7 µM
TGI (HOP-92 NSCLC): > 100 µM
GI50 (MCF7 breast): 27.6 µM
TGI (MCF7 breast): > 100 µM
GI50 (HCT-116 colon): 37.5 µM
TGI (HCT-116 colon): > 100 µM
GI50 (A498 renal): > 100 µM
TGI (A498 renal): > 100 µM

c1ccc(CN2COc3c(ccc4c3OCN(Cc3ccccc3)C4)C2)cc1
GI50 (UO-31 renal): 0.122 µM
TGI (UO-31 renal): 1.41 µM
GI50 (SR leukemia): 0.534 µM
TGI (SR leukemia): > 100 µM
GI50 (OVCAR-5 ovarian): 0.857 µM
TGI (OVCAR-5 ovarian): > 100 µM
GI50 (COLO 205 colon): 1.96 µM
TGI (COLO 205 colon): > 42 µM
GI50 (LOX IMVI melanoma): 0.825 µM
TGI (LOX IMVI melanoma): > 100 µM
GI50 (DU-145 prostate): 0.569 µM
TGI (DU-145 prostate): > 100 µM
GI50 (HOP-92 NSCLC): 1.18 µM
TGI (HOP-92 NSCLC): > 100 µM
GI50 (MCF7 breast): 0.515 µM
TGI (MCF7 breast): > 100 µM
GI50 (HCT-116 colon): 0.535 µM
TGI (HCT-116 colon): > 100 µM
GI50 (A498 renal): 1.19 µM
TGI (A498 renal): > 30.3 µM

Cc1csc(/C=C/C(=O)c2nnn(-c3ccnc4c(C(F)(F)F)cccc34)c2C)c1
GI50 (UO-31 renal): 94.4 µM
TGI (UO-31 renal): > 100 µM
GI50 (SR leukemia): 23 µM
TGI (SR leukemia): > 100 µM
GI50 (OVCAR-5 ovarian): > 100 µM
TGI (OVCAR-5 ovarian): > 100 µM
GI50 (COLO 205 colon): 41.3 µM
TGI (COLO 205 colon): > 100 µM
GI50 (LOX IMVI melanoma): 49.1 µM
TGI (LOX IMVI melanoma): > 100 µM
GI50 (DU-145 prostate): > 100 µM
TGI (DU-145 prostate): > 100 µM
GI50 (HOP-92 NSCLC): 90.2 µM
TGI (HOP-92 NSCLC): > 100 µM
GI50 (MCF7 breast): > 100 µM
TGI (MCF7 breast): > 100 µM
GI50 (HCT-116 colon): 39.9 µM
TGI (HCT-116 colon): > 100 µM
GI50 (A498 renal): > 100 µM
TGI (A498 renal): > 100 µM

CCOC(=O)c1cc2c(cc1Cl)SC(N(c1ccc(OC)cc1)S(=O)(=O)c1ccc(Cl)cc1)=NS2(=O)=O
GI50 (UO-31 renal): 32 µM
TGI (UO-31 renal): > 100 µM
GI50 (SR leukemia): 24.8 µM
TGI (SR leukemia): 98.6 µM
GI50 (OVCAR-5 ovarian): > 100 µM
TGI (OVCAR-5 ovarian): > 100 µM
GI50 (COLO 205 colon): 18.4 µM
TGI (COLO 205 colon): 48.7 µM
GI50 (LOX IMVI melanoma): 18.7 µM
TGI (LOX IMVI melanoma): 38.3 µM
GI50 (DU-145 prostate): 24 µM
TGI (DU-145 prostate): 79.9 µM
GI50 (HOP-92 NSCLC): 19.1 µM
TGI (HOP-92 NSCLC): 38.6 µM
GI50 (MCF7 breast): 25.6 µM
TGI (MCF7 breast): 68.2 µM
GI50 (HCT-116 colon): 35.8 µM
TGI (HCT-116 colon): > 100 µM
GI50 (A498 renal): 80.8 µM
TGI (A498 renal): > 100 µM

CC1CCCC(C(O)CC2CC(=O)NC(=O)C2)C1O (centres undefined)
TGI (UO-31 renal): > 100 µM
TGI (SR leukemia): > 100 µM
TGI (OVCAR-5 ovarian): > 100 µM
TGI (COLO 205 colon): > 100 µM
TGI (LOX IMVI melanoma): > 100 µM
TGI (DU-145 prostate): > 100 µM
TGI (HOP-92 NSCLC): > 100 µM
TGI (MCF7 breast): > 100 µM
TGI (HCT-116 colon): > 100 µM
TGI (A498 renal): > 100 µM
